≈ marks a conversion by molar mass, not a printed value. Calls of active or inactive are those of the source. No cut-off for these calls is given here.

These results are taken from ChEMBL document CHEMBL4831541, “Antibiotic Conjugates with an Artificial MECAM-Based Siderophore Are Potent Agents against Gram-Positive and Gram-Negative Bacterial Pathogens” (2021).

Experiment [1] relates to Escherichia coli. Nature of the experiment: Antibacterial activity against Escherichia coli delta fiu assessed as growth inhibition by measuring minimal concentration at OD600 by visual inspection with iron-limited media incubated for 24 hrs. It counts as functional.
The test system of experiment [2] is Escherichia coli. As to the kind of experiment: Antibacterial activity against Escherichia coli K-12 BW25113 assessed as growth inhibition after 21 serial passages by measuring minimal concentration at OD600 by visual inspection with iron-limited media incubated for 24 hrs. It counts as functional.
A further experiment deals with Staphylococcus aureus. As to the kind of experiment: Antibacterial activity against Staphylococcus aureus DSM11822 assessed as growth inhibition by measuring minimal concentration at OD600 by visual inspection with iron-limited media incubated for 24 hrs. It counts as functional.
Experiment [3] deals with Escherichia coli. As to the kind of experiment: Antibacterial activity against Escherichia coli delta fepA delta cirA assessed as growth inhibition by measuring minimal concentration at OD600 by visual inspection with iron-limited media incubated for 24 hrs. It counts as functional.
Experiment [4] concerns Escherichia coli. As to the kind of experiment: Antibacterial activity against Escherichia coli K-12 BW25113 delta exbB assessed as growth inhibition by measuring minimal concentration at OD600 by visual inspection measured after reintroduction of plasmid expressing full length exbB with iron-limited media incubated for 24 hrs. The class given is functional.
Another experiment deals with Enterococcus faecium. As to the kind of experiment: Antibacterial activity against Enterococcus faecium DSM20477 assessed as growth inhibition by measuring minimal concentration at OD600 by visual inspection with iron-limited media incubated for 24 hrs. The class given is functional.
A further experiment relates to Acinetobacter baumannii. Nature of the experiment: Antibacterial activity against Acinetobacter baumannii DSM30007 assessed as growth inhibition by measuring minimal concentration at OD600 by visual inspection with iron-limited media incubated for 24 hrs. The class given is functional.
In experiment [5] the test system is Escherichia coli. Nature of the experiment: Antibacterial activity against Escherichia coli delta […] delta fiu assessed as growth inhibition by measuring minimal concentration at OD600 by visual inspection with iron-limited media incubated for 24 hrs. The class given is functional.
Experiment [6] has as its system Escherichia coli. Nature of the experiment: Antibacterial activity against Escherichia coli K-12 BW25113 delta cyoB assessed as growth inhibition by measuring minimal concentration at OD600 by visual inspection with iron-limited media incubated for 24 hrs. The class given is functional.
For experiment [7], the system named is Escherichia coli. Nature of the experiment: Antibacterial activity against Escherichia coli delta fepB assessed as growth inhibition by measuring minimal concentration at OD600 by visual inspection with iron-limited media incubated for 24 hrs. The class given is functional.
For experiment [8], the system named is Escherichia coli. As to the kind of experiment: Antibacterial activity against Escherichia coli delta cirA delta fiu assessed as growth inhibition by measuring minimal concentration at OD600 by visual inspection with iron-limited media incubated for 24 hrs. It counts as functional.
Experiment [9] has as its system Escherichia coli. As to the kind of experiment: Antibacterial activity against Escherichia coli K-12 BW25113 delta exbB assessed as growth inhibition by measuring minimal concentration at OD600 by visual inspection measured after reintroduction of plasmid expressing exbB Q163 mutant with iron-limited media incubated for 24 hrs. It counts as functional.
Experiment [10] concerns Escherichia coli. Nature of the experiment: Antibacterial activity against Escherichia coli BW25113 assessed as growth inhibition by measuring minimal concentration at OD600 by visual inspection with iron-limited media incubated for 24 hrs. The class given is functional.
Experiment [11] relates to Escherichia coli. As to the kind of experiment: Antibacterial activity against wild type Escherichia coli BW25113 assessed as growth inhibition by measuring minimal concentration at OD600 by visual inspection with iron-limited media incubated for 24 hrs. The class given is functional.
In experiment [12] the test system is Escherichia coli. Nature of the experiment: Antibacterial activity against Escherichia coli delta fepD assessed as growth inhibition by measuring minimal concentration at OD600 by visual inspection with iron-limited media incubated for 24 hrs. The class given is functional.
Experiment [13] deals with Escherichia coli. Nature of the experiment: Antibacterial activity against Escherichia coli delta cirA assessed as growth inhibition by measuring minimal concentration at OD600 by visual inspection with iron-limited media incubated for 24 hrs. It counts as functional.
For experiment [14], the system named is Escherichia coli. Nature of the experiment: Antibacterial activity against Escherichia coli delta fepA delta cirA delta fiu assessed as growth inhibition by measuring minimal concentration at OD600 by visual inspection with iron-limited media incubated for 24 hrs. It counts as functional.
The subject of experiment [15] is Escherichia coli. As to the kind of experiment: Antibacterial activity against Escherichia coli delta exbB assessed as growth inhibition by measuring minimal concentration at OD600 by visual inspection with iron-limited media incubated for 24 hrs. It counts as functional.
The test system of the next experiment is Klebsiella pneumoniae. Nature of the experiment: Antibacterial activity against Klebsiella pneumoniae DSM11678 assessed as growth inhibition by measuring minimal concentration at OD600 by visual inspection with iron-limited media incubated for 24 hrs. It counts as functional, organism-based.
In a further experiment the test system is Pseudomonas aeruginosa. As to the kind of experiment: Antibacterial activity against Pseudomonas aeruginosa DSM24068 assessed as growth inhibition by measuring minimal concentration at OD600 by visual inspection with iron-limited media incubated for 24 hrs. The class given is functional, organism-based.
Experiment [16] deals with Escherichia coli. Nature of the experiment: Antibacterial activity against Escherichia coli delta fepA assessed as growth inhibition by measuring minimal concentration at OD600 by visual inspection with iron-limited media incubated for 24 hrs. The class given is functional.
For experiment [17], the system named is Escherichia coli. As to the kind of experiment: Antibacterial activity against Escherichia coli delta tonB assessed as growth inhibition by measuring minimal concentration at OD600 by visual inspection with iron-limited media incubated for 24 hrs. It counts as functional.
Experiment [18] deals with Escherichia coli. Nature of the experiment: Antibacterial activity against Escherichia coli K-12 BW25113 delta cyoB assessed as growth inhibition by measuring minimal concentration at OD600 measured after reintroduction of plasmid expressing cyoB G269D mutant by visual inspection with iron-limited media incubated for 24 hrs. The class given is functional.

Consider `CC(=O)Oc1cccc(C(=O)NCc2cc(CNC(=O)c3cccc(OC(C)=O)c3OC(C)=O)c(NC(=O)CCCc3cn(CCC(=O)N[C@@H](C(=O)N[C@@H]4C(=O)N5[C@@H]4SC(C)(C)[C@@H]5C(=O)O)c4ccccc4)nn3)c(CNC(=O)c3cccc(OC(C)=O)c3OC(C)=O)c2)c1OC(C)=O`, for which the MIC in the experiment on Escherichia coli [1] was 1.5 µM (≈ 2.07 µg/mL); with Escherichia coli [2] it was more than 12 µM; in the experiment with Staphylococcus aureus, 0.12 µM (≈ 0.166 µg/mL); in the experiment with Escherichia coli [3], 1.5 µM (≈ 2.07 µg/mL); with Escherichia coli [4], 2.9 µM (≈ 4.01 µg/mL); in the experiment on Enterococcus faecium, 0.62 µM (≈ 0.856 µg/mL). The MIC was not above 0.09 µM with Acinetobacter baumannii; 1.5 µM (≈ 2.07 µg/mL) in the experiment on Escherichia coli [5]; 2.9 µM (≈ 4.01 µg/mL) in the experiment with Escherichia coli [6]; 2.9 µM (≈ 4.01 µg/mL) in the experiment on Escherichia coli [7]; 2.9 µM (≈ 4.01 µg/mL) with Escherichia coli [8]; more than 12 µM in the experiment on Escherichia coli [9]. In addition, the MIC was not above 0.09 µM with Escherichia coli [10]; 1.5 µM (≈ 2.07 µg/mL) in the experiment with Escherichia coli [12]; 2.9 µM (≈ 4.01 µg/mL) in the experiment on Escherichia coli [13]; more than 12 µM with Escherichia coli [14]; more than 12 µM in the experiment on Escherichia coli [15]; 2.9 µM (≈ 4.01 µg/mL) with Escherichia coli [16]. Further, the values for the MIC with Escherichia coli [17] and in the experiment with Escherichia coli [18] were more than 12 µM and 2.9 µM (≈ 4.01 µg/mL), respectively. For the same compound, the result with Escherichia coli [11], in the experiment with Klebsiella pneumoniae and with Pseudomonas aeruginosa was inactive.

What is called MIC is the lowest concentration that inhibits growth of the organism.
